Experimental data: patent US20250332096A1, “BEVERAGE FORMULATION AND METHOD OF PROMOTING CELLULAR HYDRATION BY ENHANCING INTRACELLULAR PERMEATION” (Eastpond Laboratories Limited, priority 2024, published 2025)

What was measured:
pH of test solutions = format: physicochemical; conditions: purified water
Protocol: (§1) 1:1 mol/mol stoichiometry complexes were prepared for the experiment. Nicotinic acid/alpha-CD complex was prepared by dissolving 11.22 g nicotinic acid and 98.63 g alpha-CD (89.66 g on dry basis) in 700 ml purified water. Nicotinamide/alpha-CD complex was prepared by dissolving 5.57 g nicotinamide and 49.3 g alpha-CD (44.4 g on dry basis) in 350 ml purified water and L-arginine/alpha-CD complex was prepared by dissolving 15.18 g L-arginine and 94.26 g alpha-CD (85.69 g on dry basis) in 700 ml purified water. Further, for all the three complexes, the liquid was frozen in dry ice bath and lyophilized. The dry lyophilizate was ground and sieved.
(§2) Clarity, pH, conductivity, density, viscosity, turbidity, surface tension and osmolality were determined in solutions prepared with purified water. […]

[1] = Viscosity of test solutions; format: physicochemical; conditions: purified water
Protocol: as §1
Clarity, pH, conductivity, density, viscosity, turbidity, surface tension and osmolality were determined in solutions prepared with purified water.

[2] = Surface tension of test solutions; format: physicochemical; conditions: purified water
Protocol: as §1, §2

C. elegans [3] = test: C. elegans longevity in hydration modified water (Example 5); format: in vivo; conditions: for Animals alive, % of initial: 0.1% w/w in nutritive media, USA I water
Protocol: C. elegans nematodes were grown in petri-type dishes containing normal nutrient liquid media prepared alternatively with USA I water (described in Example 2) lacking any further additive component (control) or the same water supplemented with a parent α-, β-, or γ-cyclodextrin, and/or a bioactive agent, as an active component of cellular hydration. Fifty ±3 worms were transferred to each dish. Each condition was repeated in triplicate. Experiments were repeated for USA II and BP I waters described in Example 2.
• A. Addition of parent α-, β- and γ-cyclodextrins. • B. Addition of L-arginine and nicotinamide. • C. Addition of inclusion complexes of cyclodextrins with L-arginine and nicotinamide.

human aquaporin 1 (AQP1) = molecular target: T1, human aquaporin 1 (AQP1) (Homo sapiens, UniProt P29972); test: Xenopus oocyte swelling assay, osmotic water permeability; format: cell-based; conditions: 0.05% in water
T1 construct: host or cells: Xenopus laevis oocytes (mRNA injection)
T1 sequence (P29972 1-269): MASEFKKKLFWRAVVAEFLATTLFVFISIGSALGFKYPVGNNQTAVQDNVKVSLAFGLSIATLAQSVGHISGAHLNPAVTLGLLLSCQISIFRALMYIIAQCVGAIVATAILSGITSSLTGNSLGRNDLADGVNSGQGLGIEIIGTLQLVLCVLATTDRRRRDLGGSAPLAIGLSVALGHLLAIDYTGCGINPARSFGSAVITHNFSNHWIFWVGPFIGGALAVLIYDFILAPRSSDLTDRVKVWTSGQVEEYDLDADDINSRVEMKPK
Protocol: They were then kept on ice for another 15 min before ovarectomy was performed. Ovaries were incubated in collagenase (Worthington Type II, 10 mg/ml) in calcium free Barth's solution (CFBS, NaCl 88 mM, KCl 1 mM, MgSO4 0.8 mM, TRIS-HCl 5 mM, NaHCO3 2.4 mM). Following defolliculation, oocytes were rinsed in normal Barth's solution (MBS, NaCl 88 mM, KCl 1 mM, CaCl2 0.4 mM, Ca(NO3)2 0.33 mM, MgSO4 0.8 mM, TRIS-HCl 5 mM, NaHCO3 2.4 mM) before they were transferred to 96-well plates. For nuclear injection of the different DNA's into the oocytes and for cytoplasmic injection of the mRNA encoding human Aquaporin-1 channels into the oocytes, the Roboocyte automated injection and recording system was used. (Human Aquaporine 1 cDNA cloned in expressing vector pGEM-T were purchased from Sino Biological Inc. Transcription to AQP1 mRNA was performed by an Ecocyte cooperation partner lab.) The mRNA injection volume was in the range 20-50 nl at a mRNA concentration of 100 ng/μl. After two to three days of incubation in Barth's solution supplemented with Gentamycin, water uptake of the Xenopus Oocytes through AQP1 channels was tested in a swelling assay using video microscopy. […] Normal frog ringer (NFR, NaCl 90 mM, KCl 2 mM, CaCl2 2 mM, MgCl2 1 mM, HEPES 5 mM, osmolarity 200 mOsm/1) was used as control solution and was prepared freshly on the day of the experiments. […]

C. elegans [4] = test: C. elegans lifespan Test A (observations carried out earlier); format: in vivo; conditions: day 15, 0.1%, 50 worms per group
Protocol: C. elegans study performed for the present disclosure is a follow-up and repetition of the observations carried out earlier (referred as Test A here). The results of the current C. elegans study (Test B) were recorded with higher number of animals compared to the Test A (50 worms per treated groups versus 130 worms per groups). Nematodes were maintained and propagated on Nematode Growth Medium—(NGM) containing plates and fed with Escherichia coli OP50 bacteria. The C. elegans strain used in this study is Bristol (N2) as wild-type.

pH (pH of test solutions; 0.05%): 6.20
pH (pH of test solutions; 0.10%): 6.36
pH (pH of test solutions; 1.00%): 6.55
pH (pH of test solutions; 2.00%): 6.70
Viscosity (25 C.) ([1]; 0.05%): 0.91 cP
Viscosity (25 C.) ([1]; 0.10%): 0.92 cP
Viscosity (25 C.) ([1]; 1.00%): 0.97 cP
Viscosity (25 C.) ([1]; 2.00%): 1.06 cP
Surface Tension ([2]; 0.05%): 72 mN · m^−1
Surface Tension ([2]; 0.10%): 72 mN · m^−1
Surface Tension ([2]; 1.00%): 72 mN · m^−1
Surface Tension ([2]; 2.00%): 73 mN · m^−1
water permeation of human-aquaporin-expressed oocytes (human aquaporin 1 (AQP1)): highest water permeation
SMILES: OC[C@H]1O[C@@H]2O[C@H]3[C@H](O)[C@@H](O)[C@@H](O[C@H]4[C@H](O)[C@@H](O)[C@@H](O[C@H]5[C@H](O)[C@@H](O)[C@@H](O[C@H]6[C@H](O)[C@@H](O)[C@@H](O[C@H]7[C@H](O)[C@@H](O)[C@@H](O[C@H]1[C@H](O)[C@H]2O)O[C@@H]7CO)O[C@@H]6CO)O[C@@H]5CO)O[C@@H]4CO)O[C@@H]3CO [Alpha Cyclodextrin, α-cyclodextrin]
number of animals surviving to old ages (C. elegans [3]; after day 15, 0.1% w/w): significantly increased
Animals alive, % of initial (C. elegans [3]; life span 10 days): 100 % of initial
Animals alive, % of initial (C. elegans [3]; life span 15 days): 20 % of initial
Animals alive, % of initial (C. elegans [3]; life span 18 days): 2 % of initial
Fraction of worms alive (C. elegans [4]): 25%
